Measurements: article PMC4457528, “Identification of Novel Small Molecule Inhibitors of Oncogenic RET Kinase” (PLoS ONE, 2015)
Where two headings read alike, the source gives them in different places.

Experiments:
Assay in all cases: KinomeScan kinase panel, single concentration 10 µM
Type in all cases: binding
KinomeScan kinase panel [1] = target: T1, KinomeScan kinase panel (Homo sapiens, UniProt Q99640); conditions: PKMYT1, 10 µM
T1 construct: purchased DiscoveRx (KinomeScan)
T1 sequence (Q99640 1-499): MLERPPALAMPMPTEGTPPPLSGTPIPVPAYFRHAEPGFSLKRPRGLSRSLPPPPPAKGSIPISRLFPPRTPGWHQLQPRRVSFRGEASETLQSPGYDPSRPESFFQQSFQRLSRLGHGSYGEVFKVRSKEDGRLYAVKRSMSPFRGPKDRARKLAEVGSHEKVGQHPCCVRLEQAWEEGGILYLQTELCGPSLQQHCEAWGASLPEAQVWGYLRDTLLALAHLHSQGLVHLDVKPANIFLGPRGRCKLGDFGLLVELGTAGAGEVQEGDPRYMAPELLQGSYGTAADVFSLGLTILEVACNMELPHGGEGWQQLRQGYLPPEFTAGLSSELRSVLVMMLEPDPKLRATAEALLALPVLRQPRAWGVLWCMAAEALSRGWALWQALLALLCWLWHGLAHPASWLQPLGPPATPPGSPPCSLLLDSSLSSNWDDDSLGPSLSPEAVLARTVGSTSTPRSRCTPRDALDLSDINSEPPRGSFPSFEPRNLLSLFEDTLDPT

KinomeScan kinase panel [2] = target: T2, KinomeScan kinase panel (Homo sapiens, UniProt Q8TD08); conditions: ERK8, 10 µM; read-out: score (%)
T2 construct: purchased DiscoveRx (KinomeScan)
T2 sequence (Q8TD08 1-544): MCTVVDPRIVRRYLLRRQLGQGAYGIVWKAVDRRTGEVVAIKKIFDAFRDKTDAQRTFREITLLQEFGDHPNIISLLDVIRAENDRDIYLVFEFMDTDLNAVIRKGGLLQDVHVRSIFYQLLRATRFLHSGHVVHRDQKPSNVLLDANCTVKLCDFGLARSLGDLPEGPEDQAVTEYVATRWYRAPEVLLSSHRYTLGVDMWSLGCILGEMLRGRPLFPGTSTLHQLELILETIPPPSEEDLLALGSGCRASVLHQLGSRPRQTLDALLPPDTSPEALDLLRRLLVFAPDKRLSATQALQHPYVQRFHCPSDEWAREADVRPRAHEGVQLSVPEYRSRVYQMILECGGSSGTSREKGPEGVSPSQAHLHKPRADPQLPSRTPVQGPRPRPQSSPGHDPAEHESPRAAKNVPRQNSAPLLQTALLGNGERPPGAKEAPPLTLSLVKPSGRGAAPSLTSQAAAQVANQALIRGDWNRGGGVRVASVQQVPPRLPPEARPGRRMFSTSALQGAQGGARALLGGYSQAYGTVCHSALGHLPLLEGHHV

KinomeScan kinase panel [3] = target: T3, KinomeScan kinase panel (Homo sapiens, UniProt Q13470); conditions: read-out: score (%)
T3 construct: purchased DiscoveRx (KinomeScan)
T3 sequence (Q13470 1-666): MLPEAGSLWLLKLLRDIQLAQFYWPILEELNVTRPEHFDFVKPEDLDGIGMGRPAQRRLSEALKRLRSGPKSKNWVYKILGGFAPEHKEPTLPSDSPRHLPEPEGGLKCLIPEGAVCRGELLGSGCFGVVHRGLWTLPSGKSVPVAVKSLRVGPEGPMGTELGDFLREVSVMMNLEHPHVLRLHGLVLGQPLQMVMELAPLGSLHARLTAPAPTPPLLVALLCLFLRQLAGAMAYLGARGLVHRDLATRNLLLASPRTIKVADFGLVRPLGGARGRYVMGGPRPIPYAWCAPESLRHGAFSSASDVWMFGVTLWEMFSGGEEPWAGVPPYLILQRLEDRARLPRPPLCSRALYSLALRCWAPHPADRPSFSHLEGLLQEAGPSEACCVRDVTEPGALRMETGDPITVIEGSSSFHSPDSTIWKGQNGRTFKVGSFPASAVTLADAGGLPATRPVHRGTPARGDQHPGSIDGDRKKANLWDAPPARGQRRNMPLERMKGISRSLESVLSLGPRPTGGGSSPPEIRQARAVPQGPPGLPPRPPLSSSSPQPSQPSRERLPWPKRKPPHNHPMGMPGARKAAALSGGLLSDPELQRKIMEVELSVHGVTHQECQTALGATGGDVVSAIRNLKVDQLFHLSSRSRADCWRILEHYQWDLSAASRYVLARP

KinomeScan kinase panel [4] = target: T4, KinomeScan kinase panel (Homo sapiens, UniProt O95835); conditions: LATS1, 10 µM; read-out: score (%)
T4 construct: purchased DiscoveRx (KinomeScan)
T4 sequence (O95835 1-1130): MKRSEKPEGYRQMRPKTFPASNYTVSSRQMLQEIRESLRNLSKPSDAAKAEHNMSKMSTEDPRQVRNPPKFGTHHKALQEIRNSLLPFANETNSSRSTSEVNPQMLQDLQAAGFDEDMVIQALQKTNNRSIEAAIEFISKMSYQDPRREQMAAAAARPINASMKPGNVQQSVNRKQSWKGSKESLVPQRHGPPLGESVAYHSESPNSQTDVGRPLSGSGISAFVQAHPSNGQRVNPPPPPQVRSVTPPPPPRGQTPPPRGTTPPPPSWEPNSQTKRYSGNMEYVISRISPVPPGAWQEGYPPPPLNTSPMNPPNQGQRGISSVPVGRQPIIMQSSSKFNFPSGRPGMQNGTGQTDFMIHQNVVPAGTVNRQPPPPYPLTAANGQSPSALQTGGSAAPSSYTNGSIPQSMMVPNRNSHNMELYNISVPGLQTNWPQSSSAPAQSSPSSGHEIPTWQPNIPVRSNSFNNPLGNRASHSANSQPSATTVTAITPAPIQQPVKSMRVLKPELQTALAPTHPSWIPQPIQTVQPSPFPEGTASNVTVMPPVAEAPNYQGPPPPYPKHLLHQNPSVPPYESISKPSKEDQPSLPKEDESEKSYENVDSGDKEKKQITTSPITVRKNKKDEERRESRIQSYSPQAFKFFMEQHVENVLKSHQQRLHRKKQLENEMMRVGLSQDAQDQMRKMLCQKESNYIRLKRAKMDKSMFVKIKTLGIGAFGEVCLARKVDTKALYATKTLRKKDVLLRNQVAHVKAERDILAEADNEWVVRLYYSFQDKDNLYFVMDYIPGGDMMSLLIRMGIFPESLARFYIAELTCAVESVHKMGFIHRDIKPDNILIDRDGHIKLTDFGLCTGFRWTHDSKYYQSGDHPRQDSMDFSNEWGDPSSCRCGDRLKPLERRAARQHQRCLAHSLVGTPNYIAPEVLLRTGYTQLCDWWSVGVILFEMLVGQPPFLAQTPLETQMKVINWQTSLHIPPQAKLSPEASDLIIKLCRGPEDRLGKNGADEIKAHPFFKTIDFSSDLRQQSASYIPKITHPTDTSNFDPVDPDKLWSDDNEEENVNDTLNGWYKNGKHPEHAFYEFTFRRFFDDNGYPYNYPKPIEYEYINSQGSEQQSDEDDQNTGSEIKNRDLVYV

remaining binding at 10 µM (KinomeScan kinase panel [3]; TNK1, 10 µM) [%]	Structure (SMILES)	score (%) (KinomeScan kinase panel [1])	remaining binding at 10 µM (KinomeScan kinase panel [2]) [%]	remaining binding at 10 µM (KinomeScan kinase panel [3]; kinase TNK1, 10 µM) [%]	remaining binding at 10 µM (KinomeScan kinase panel [4]) [%]
–	CCN1CCN(Cc2ccc(NC(=O)c3ccc(C)c(NC(=O)c4cncc(-c5cccs5)c4)c3)cc2C(F)(F)F)CC1 [ALW-II-41-27]	nb (Hits values higher than 30% were considered negative (no binding: nb))	> 30	7.7	> 30
0.8	CCN1CCN(Cc2ccc(NC(=O)c3ccc(C)c(/C=C/c4cnc5[nH]ccc5c4Cl)c3)cc2C(F)(F)F)CC1 [HG-6-63-01, (E)-3-(2-(4-chloro-1H-pyrrolo[2,3-b]pyridin-5-yl)vinyl)-N-(4-((4-ethylpiperazin-1-yl)methyl)-3-(trifluoromethyl)phenyl)-4-methylbenzamide]	nb (Hits values higher than 30% were considered negative (no binding: nb))	> 30	–	> 30
–	CCN1CCN(Cc2ccc(NC(=O)c3ccc(C)c(C#Cc4cccnc4)c3)cc2C(F)(F)F)CC1 [XMD15-44]	85%	1.8	0	20
